The test system of one assay is phospho-MARCKS. Briefly: IL-13-induced signaling in primary NHBE cells, western blot: phospho-MARCKS. Type of assay: cell-based, human. The conditions noted are these: air-liquid interface, peptide 50 μM for 4 hrs, then IL-13 20 ng/ml for one hour. On the technique in general: In western blotting, separated proteins are transferred to a membrane and probed.
The test system of another assay is phospho-STAT6. Briefly: IL-13-induced signaling in primary NHBE cells, western blot: phospho-STAT6. Type of assay: cell-based, human. The conditions noted are these: air-liquid interface, peptide 50 μM for 4 hrs, then IL-13 20 ng/ml for one hour.
In assay [1] the test system is antigen-presenting cells, dendritic cells (DCs). The experiment in a line: Homing of antigen-presenting dendritic cells to mediastinal lymph nodes, flow cytometry, Ova-induced allergic mouse asthma. Format: in vivo. Particulars: allergic animal model; OVA-DQ challenge day 15-18; CD11c+ cells in mediastinal lymph nodes. How it is done: For detection of antigen specific DCs migration, mice were challenged with 150 μg OVA-DQ (Life Technologies, Grand Island, N.Y.) for one time per day at day 15-18. Cells were isolated from the mediastinal lymph nodes and lungs. Cells were stained with CD11c conjugated PEC-Cy7 (BD Bioscience, San Jose, Calif.) and analyzed by flow cytometry. Peptides used in this study were (wild type) MPS, A-MPS (mutant 2 in the figure) and D-MPS (mutant 1 in the FIG. 8).

Assay [2] relates to OVA-allergic mouse airways. The experiment in a line: Airway resistance by invasive body plethysmography, murine OVA-allergic model. Type of assay: in vivo. The conditions noted are these: peptide i.p. before OVA i.n. challenge. How it is done:
(§1) FIG. 2A: Murine OVA-allergic model.
Experiments were carried out as described in FIG. 2A. At day 19, animals were collected for airway resistance as measured by invasive body plethysmography. Data are expressed as the mean±SEM values (n=3). # p<0.05, PBS+OVA compared with the PBS control. *p<0.05, MPS +OVA compared with the PBS+OVA group.

Assay [3] deals with OVA-allergic mouse airways. Briefly: Lung section histology (H&E, PAS), murine OVA-allergic model. Format: in vivo. Particulars: for allergic inflammation associated with allergen/ovalbumin-induced allergic airway disease: mouse. How it is done: as §1
FIGS. 4A-4B show MPS suppressed mucous cell metaplasia (stained by periodic acid stain (PAS)) and inflammatory cells in OVA-allergic mouse airways. Experiments were carried out as described in FIG. 2A. At day 19, animals were sacrificed and lung tissues were fixed for paraffin sections. FIG. 4A: Lung sections were stained by H&E, and PAS staining. Original magnification ×200. FIG. 4B: Quantification of the numbers of H&E-stained cells and PAS-stained cells, and the score of the Masson trichrome staining are presented in bar graphs. Data are expressed as mean±SEM values (n=6).

A further assay has as its system p-Ser-159/163 MARCKS. Particulars: MPS 154 μg/mouse/day i.p. day 10-14 prior to OVA i.n. exposure; IHC of lung tissue sections.
Assay [4] deals with inflammatory cell types in OVA-allergic mouse airways.
In assay [5] the test system is BALF inflammatory cytokines (IL-4, IL-5, IL-13, eotaxin; IFN-γ). Particulars: OVA-allergic mouse airways; MPS 154 μg/mouse/day i.p.; ELISA. (In general: An ELISA detects its analyte on a solid surface through an enzyme-linked reagent.)
The subject of the next assay is OVA-specific IgE. The conditions noted are these: OVA-allergic mouse; MPS 154 μg/mouse/day i.p.; ELISA.
The subject of another assay is mucus secretion. The conditions noted are these: previously reported, U.S. Patent Application Publication No. 2009/00220581; cited from earlier work.
[6] abbreviates: day 19, MPS+OVA vs PBS+OVA p<0.05.
Where [7] appears, read: OVA-allergic mouse airways, MPS 154 μg/mouse/day i.p., day 19.

Where no end group is shown, it is not given here. The star is where a group is joined. Myristoyl = CCCCCCCCCCCCCC(=O)*

Here are results for four substances from patent US11007248B2, “Suppression of allergic lung inflammation and hyperreactivity” (The Regents of the University of California, priority 2013, dated 2021).

Consider KKKKKRFAFKKAFKLAGFAFKKNKK [A-MPS], for which the “suppression of IL-13-induced phospho-MARCKS elevation” value in the assay on phospho-MARCKS is on record as “very effective in the suppression”. Besides, the “suppression of IL-13-induced phospho-STAT6 elevation” value with phospho-STAT6 is recorded as “very effective in the suppression”. The “lymph node homing of antigen presenting cells” value (“lymph node homing” below) in assay [1] is recorded as “inhibited”. The “airway hyper-reactivity (airway resistance)” value (“airway hyper-reactivity” for short) in assay [2] (setting [6]) is reported as “able to suppress”. Besides, the “allergic inflammation associated with allergen/ovalbumin-induced allergic airway disease” value in assay [3] is given as “able to suppress”.

As for KKKKKRFDFKKDFKLDGFDFKKNKK [D-MPS], the “suppression of IL-13-induced phospho-MARCKS elevation” value with phospho-MARCKS was “not”. Besides, the “suppression of IL-13-induced phospho-STAT6 elevation” value in the assay with phospho-STAT6 was “not”. Further, the “lymph node homing” value in assay [1] is on record as “no suppressive effects”. In addition, the “airway hyper-reactivity” value in assay [2] (setting [6]) is on record as “not seen”. For the same substance, the “allergic inflammation associated with allergen/ovalbumin-induced allergic airway disease” value in assay [3] was “not seen”.

In the case of KKKKKRFSFKKSFKLSGFSFKKNKK [MPS], in the assay on phospho-MARCKS, the “suppression of IL-13-induced phospho-MARCKS elevation” value is reported as “very effective in the suppression”. In the assay with p-Ser-159/163 MARCKS, the “MARCKS phosphorylation in OVA sensitizing mice” value is listed as “effectively suppress”. Also, the “eosinophils (inflammatory response)” value in [4] (BALF differential cell counts) is recorded as “reduction”. The “presence of various inflammatory cell types in BALF” value in assay [4] (MPS 154 μg/mouse/day i.p., day 19) is listed as “suppressed”. For the same substance, the “suppression of IL-13-induced phospho-STAT6 elevation” value in the assay on phospho-STAT6 is “very effective in the suppression”. In addition, the “lymph node homing” value in assay [1] is reported as “inhibited”. For the same substance, in assay [5], the “Th1 cytokine (IFN-γ) in BALF” value is listed as “not” and the “Th2 cytokines (IL-4, IL-5, IL-13, eotaxin) in BALF” value is given as “suppressed specifically”. The “serum OVA-specific IgE” value in the assay with OVA-specific IgE is “suppressed”. Besides, in assay [2] (setting [6]), the “airway hyper-reactivity” value was “suppressed”. Also, the “airway hyper-reactivity” value in assay [2] (day 19, MPS+OVA vs PBS+OVA p<0.05, listed as (wild-type) MPS) is recorded as “able to suppress”. Moreover, in [3] (setting [7]), the “inflammatory cells in lung tissue (H&E)” value was “suppressed” and the “mucous cell metaplasia (PAS stain)” value was “suppressed”. Moreover, the “allergic inflammation associated with allergen/ovalbumin-induced allergic airway disease” value in [3] was “able to suppress”.

For the substance “myristic acid—KKKKKRFSFKKSFKLSGFSFKKNKK (Myristoyl-KKKKKRFSFKKSFKLSGFSFKKNKK) [myristic acid-wild type MPS disclosed in U.S. 2009/00220581]”, the mucus secretion result in the assay with mucus secretion is recorded as “increased”.
